20 molecules from patent publication US6506901B2, “Substituted 2-(S)-hydroxy-3-(piperidin-4-yl-methylamino)-propyl ethers and substituted 2-aryl-2-(R)-hydroxy-1-(piperidin-4-yl-methyl)-ethylamine β-3 adrenergic receptor agonists” (Wyeth, priority 2000, dated 2003) can be followed below.

The assay deals with T1, human β3 receptors (Homo sapiens, UniProt P13945).
T1 construct: Full length β3 AR clones (402 amino acids) containing the last 6 amino acids of hβ3—AR; expressed in transfected cells; host or cells: CHO cells
The assay can be described thus: cAMP response (SPA) in CHO cells expressing cloned human β3 adrenergic receptor. The format is cell-based. To be noted: for EC50: CHO cells expressing human β3 receptor, cAMP, 30 min incubation, 10^−9 M to 10^−5 M; for IA(β3): maximal response compared to the maximal response of isoproterenol at 10^−5 M. The procedure, abridged: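 CHO cells transfected with cloned human β3-AR were incubated with compound at 37° C for 30 min, stopped with 0.2N HCl and neutralized. cAMP was measured by SPA. Activity is expressed as per cent of the maximal isoproterenol (10^−5 M) response.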

The structures appear in SMILES notation.

T1 sequence (P13945 whole entry): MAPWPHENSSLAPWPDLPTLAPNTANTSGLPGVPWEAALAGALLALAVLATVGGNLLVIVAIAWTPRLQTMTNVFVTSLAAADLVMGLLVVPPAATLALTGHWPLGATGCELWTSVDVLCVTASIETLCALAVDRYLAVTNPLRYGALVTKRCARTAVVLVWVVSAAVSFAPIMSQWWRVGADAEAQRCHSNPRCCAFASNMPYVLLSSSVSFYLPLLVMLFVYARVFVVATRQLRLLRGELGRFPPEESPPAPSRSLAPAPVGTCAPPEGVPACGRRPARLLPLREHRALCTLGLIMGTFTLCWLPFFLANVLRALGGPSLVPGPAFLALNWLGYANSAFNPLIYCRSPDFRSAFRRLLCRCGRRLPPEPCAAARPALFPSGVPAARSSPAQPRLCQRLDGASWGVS

In the case of `OC1c2ccccc2-c2c(OC[C@@H](O)CNCC3CCN(CCC(F)(F)F)CC3)cccc21` (stereo partly drawn) [Example 14, 4-((2S)-2-Hydroxy-3-{[1-(3,3,3-trifluoro-propyl)-piperidin-4-ylmethyl]-amino}-propoxy)-9H-fluoren-9-ol], the EC50 is 219 nM and the “IA(β3)” value is on record as 0.75.

With `O=C(Nc1ccc(S(=O)(=O)N2CCC(CNC[C@H](O)COc3ccc(O)cc3)CC2)cc1)Nc1c(F)cccc1F` [Example 83], it took 112 nM to reach a half-maximal effect (EC50) and the “IA(β3)” value was determined as 1.2.

For `COc1ccc(S(=O)(=O)N2CCC(CNC[C@H](O)COc3cccc4[nH]c5ccccc5c34)CC2)cc1` [Example 33, (2S)-1-(9H-Carbazol-4-yloxy)-3-{[1-(4-methoxy-benzenesulfonyl)-piperidin-4-ylmethyl]-amino}-propan-2-ol], the EC50 was determined as 141 nM and the “IA(β3)” value worked out at 0.68.

As to `O=C(NC1CCCCC1)N1CCC(CNC[C@H](O)COc2cccc3[nH]c4ccccc4c23)CC1` [Example 56, 4-{[(2S)-3-(9H-Carbazol-4-yloxy)-2-hydroxy-propylamino]-methyl}-piperidine-1-carboxylic Acid Cyclohexylamide], the EC50 came to 110 nM and the “IA(β3)” value was found to be 0.53.

Consider `CS(=O)(=O)Nc1cc([C@@H](O)CNCC2CCN(S(=O)(=O)c3ccc(-n4cc(CC(=O)O)c5ccccc54)cc3)CC2)ccc1O` [Example 97, {1-[4-(4-{[(2R)-2-Hydroxy-2-(4-hydroxy-3-methanesulfonylamino-phenyl)-ethylamino]-methyl}-piperidine-1-sulfonyl)-phenyl]-1H-indol-3-yl}-acetic Acid], for which the EC50 came out at 11 nM and the “IA(β3)” value is on record as 0.96.

Regarding `O[C@@H](CNCC1CCN(CCC(F)(F)F)CC1)COc1c(Cl)ccc2[nH]c3ccccc3c12` [Example 19, (2S)-1-(3-Chloro-9H-carbazol-4-yloxy)-3-{[1-(3,3,3-trifluoro-propyl)-piperidin-4-ylmethyl]-amino}-propan-2-ol], it took 1240 nM to reach a half-maximal effect (EC50) and the “IA(β3)” value is 0.82.

`CC(C)c1ccc(S(=O)(=O)N2CCC(CNC[C@H](O)c3ccc(O)c(NS(C)(=O)=O)c3)CC2)cc1` [Example 124, N-(2-hydroxy-5-{(1R)-1-hydroxy-2-[({1-[(4-isopropylphenyl)-sulfonyl]piperidin-4-yl}methyl)amino]ethyl}phenyl)-methanesulfonamide]: the midpoint of the response, the EC50, lay at 55 nM and the “IA(β3)” value is 1.

For `COC(=O)CCc1nc(-c2ccc(S(=O)(=O)N3CCC(CNC[C@H](O)c4ccc(O)c(NS(C)(=O)=O)c4)CC3)cc2)no1` [Example 104, 3-{3-[4-(4-{[(2R)-2-Hydroxy-2-(4-hydroxy-3-methanesulfonylamino-phenyl)-ethylamino]-methyl}-piperidine-1-sulfonyl)-phenyl]-[1,2,4]oxadiazol-5-yl}-propionic Acid Methyl Ester], it took 8 nM to reach a half-maximal effect (EC50) and the “IA(β3)” value was determined as 1.

`CS(=O)(=O)Nc1cc([C@@H](O)CNCC2CCN(c3ccc(C(=O)N[C@@H](CC(=O)O)C(=O)O)cc3)CC2)ccc1O` [Example 108, (2S)-2-{[4-(4-{[((2R)-2-Hydroxy-2-{4-hydroxy-3-[(methylsulfonyl)amino]phenyl}-ethyl)amino]methyl}piperidin-1-yl)benzoyl]amino}butanedioic Acid]: a half-maximal response (EC50) required […] and the “IA(β3)” value is listed as […].

Turning to `CCOC(=O)Cc1cn(-c2ccc(S(=O)(=O)N3CCC(CNC[C@H](O)c4ccc(O)c(NS(C)(=O)=O)c4)CC3)cc2)c2ccccc12` [Example 96, {1-[4-(4-{[(2R)-2-Hydroxy-2-(4-hydroxy-3-methanesulfonylamino-phenyl)-ethylamino]-methyl}-piperidine-1-sulfonyl)-phenyl]-1H-indol-3-yl}-acetic Acid Ethyl Ester], the response was half-maximal at 13 nM (EC50) and the “IA(β3)” value is given as 0.85.

As to `O=C1Cc2c(cccc2OC[C@@H](O)CNCC2CCN(S(=O)(=O)c3ccc(OC(F)(F)F)cc3)CC2)N1` [Example 46, 4-((2S)-2-Hydroxy-3-{[1-(4-trifluoromethoxy-benzenesulfonyl)-piperidin-4-ylmethyl]-amino}-propoxy)-1,3-dihydro-indol-2-one], the EC50 was determined as 222 nM and the “IA(β3)” value was 0.81.

Take `Cc1c(C)c(C)c(S(=O)(=O)N2CCC(CNC[C@H](O)c3ccc(O)c(NS(C)(=O)=O)c3)CC2)c(C)c1C` [Example 143, N-(2-hydroxy-5-{(1R)-1-hydroxy-2-[({1-[(2,3,4,5,6-pentamethylphenyl)suIfonyl]piperidin-4-yl}methyl)amino]ethyl}phenyl)methanesulfonamide]: a half-maximal effect (EC50) was put at 810 nM and the “IA(β3)” value came to 1.34.

For the molecule `CCOC(=O)c1cc2ccccc2n1-c1ccc(S(=O)(=O)N2CCC(CNC[C@H](O)c3ccc(O)c(NS(C)(=O)=O)c3)CC2)cc1` [Example 95, 1-[4-(4-{[(2R)-2-Hydroxy-2-(4-hydroxy-3-methanesulfonylamino-phenyl)-ethyl-amino]-methyl}-piperidine-1-sulfonyl)-phenyl]-1H-indole-2-carboxalic Acid Ethyl Ester], the EC50 is 125 nM and the “IA(β3)” value came out at 0.82.

In the case of `CCCCCCCCN1CCC(CNC[C@H](O)COc2cccc3[nH]c4ccccc4c23)CC1` [Example 27], the EC50 was 1030 nM and the “IA(β3)” value worked out at 0.51.

Consider `CS(=O)(=O)Nc1cc([C@@H](O)CNCC2CCN(c3ccc(C(=O)N4CCCC4C(=O)O)cc3)CC2)ccc1O` (stereo in doubt) [Example 115, (2S)-1-[4-(4-{[((2R)-2-Hydroxy-2-{4-hydroxy-3-[(methylsulfonyl)amino]phenyl}-ethyl)amino]methyl}piperidin-1-yl)benzoyl]pyrrolidine-2-carboxylic Acid], for which the EC50 came out at 66 nM and the “IA(β3)” value was 1.

With `CN1CCN(c2ccc(S(=O)(=O)N3CCC(CNC[C@H](O)COc4ccc(O)cc4)CC3)cc2)C1=O` [Example 94, 1-[4-(4-{[2-Hydroxy-3-(4-hydroxy-phenoxy)-propylamino]-methyl}-piperidine-1-sulfonyl)-phenyl]-3-methyl-imidazolidin-2-one], the EC50 was determined as 510 nM and the “IA(β3)” value was 0.76.

`CS(=O)(=O)Nc1cc([C@@H](O)CNCC2CCN(S(=O)(=O)c3cccc4ccccc34)CC2)ccc1O` [Example 153, N-{2-hydroxy-5-[(1R)-1-hydroxy-2-({[1-(1-naphthylsulfonyl)piperidin-4-yl]methyl}amino)ethyl)phenyl}methanesulfonamide]: the response was half-maximal at 42 nM (EC50) and the “IA(β3)” value came out at 0.76.

Take `CCCCCCCCNC(=O)Nc1ccc(S(=O)(=O)N2CCC(CNC[C@H](O)c3ccc(O)c(NS(C)(=O)=O)c3)CC2)cc1` [Example 73, (R)-N-{2-Hydroxy-5-[1-hydroxy-2-({1-[4-(3-octyl-ureido)-benzenesulfonyl]-piperidin-4-ylmethyl}-amino)-ethyl]-phenyl}-methanesulfonamide]: a half-maximal response (EC50) required 6 nM and the “IA(β3)” value is on record as 1.

`CS(=O)(=O)Nc1cc([C@@H](O)CNCC2CCN(c3ccc(C(=O)NC(Cc4ccccc4)C(=O)O)cc3)CC2)ccc1O` (stereo in doubt) [Example 109, (2S)-2-{[4-(4-{[((2R)-2-Hydroxy-2-{4-hydroxy-3-[(methylsulfonyl)amino]phenyl}-ethyl)amino]methyl}piperidin-1-yl)benzoyl]amino}-3-phenylpropanoic Acid]: the midpoint of the response, the EC50, lay at 31 nM and the “IA(β3)” value is 1.2.

In the case of `Cn1cnc(S(=O)(=O)N2CCC(CNC[C@H](O)COc3ccc(O)cc3)CC2)c1` [Example 49, 4-((2S)-2-Hydroxy-3-{[1-(1-methyl-1H-imidazole-4-sulfonyl)-piperidin-4-ylmethyl]-amino}-propoxy)-phenol], the EC50 worked out at 2360 nM and the “IA(β3)” value is on record as 0.4.

One may read the EC50 as the midpoint of the concentration-response curve. A higher EC50 goes with a less potent agent.
